Test results as given in ChEMBL document CHEMBL5241112, “Insights into the recent progress in the medicinal chemistry of pyranopyrimidine analogs” (RSC Med Chem, 2022).
Values after ≈ are worked out from the molar mass of the structure shown.

Tests used:
[1] = test system: Pseudomonas aeruginosa; assay: Antimicrobial activity against Pseudomonas aeruginosa ATCC 27853 assessed as diameter of inhibition zone at 20 mg/ml incubated for 24 hrs by disk diffusion method; format: functional; conditions: read-out: DIZ
[2] = test system: Salmonella typhimurium; assay: Antimicrobial activity against Salmonella typhimurium ATCC 19430 assessed as diameter of inhibition zone at 20 mg/ml incubated for 24 hrs by disk diffusion method; format: functional, Salmonella enterica subsp. enterica serovar Typhimurium; conditions: Salmonella enterica, read-out: DIZ
[3] = test system: Klebsiella pneumoniae; assay: Antimicrobial activity against Klebsiella pneumoniae ATCC 15380 assessed as diameter of inhibition zone at 20 mg/ml incubated for 24 hrs by disk diffusion method; format: functional; conditions: read-out: DIZ
[4] = test system: Citrobacter freundii; assay: Antimicrobial activity against Citrobacter freundii ATCC 8090 assessed as diameter of inhibition zone at 20 mg/ml incubated for 24 hrs by disk diffusion method; format: functional; conditions: read-out: DIZ
[5] = test system: Escherichia coli; assay: Antimicrobial activity against Escherichia coli ATCC 25922 assessed as diameter of inhibition zone at 20 mg/ml incubated for 24 hrs by disk diffusion method; format: functional; conditions: read-out: DIZ
[6] = cells; conditions: Homo sapiens, Macrophage
[7] = target: Polyunsaturated fatty acid 5-lipoxygenase (Homo sapiens, UniProt P09917); assay: Inhibition of 5-LOX (unknown origin) by colorimetric analysis
[8] = Cytotoxicity against human HDF cells assessed as reduction in cell viability by MTT assay; format: toxicity, cell-based; conditions: HDF cells (NHDF cell line)
[9] = test system: MDA-MB-231; assay: cells; conditions: Homo sapiens
[10] = test system: PANC-1; assay: Antiproliferative activity against human PANC-1 cells assessed as reduction in cell viability by MTT assay; format: functional, cell-based; conditions: read-out: IC50
[11] = test system: Human immunodeficiency virus 2; assay: Antiviral activity against HIV2 ROD infected in human MT4 cells assessed as reduction in virus-induced cytopathic effect by MTT assay; format: functional, organism-based; conditions: Human immunodeficiency virus 2, ROD
[12] = Cytotoxicity against human MT4 cells assessed as reduction in cell viability by MTT assay; format: toxicity, cell-based
[13] = Selectivity index, ratio of CC50 for cytotoxicity against human MT4 cells to EC50 for antiviral activity against HIV2 ROD infected in human MT4 cells; format: toxicity, cell-based; conditions: read-out: Selectivity Index
[14] = test system: Human immunodeficiency virus 1; assay: Antiviral activity against HIV1 IIIB infected in human MT4 cells assessed as reduction in virus-induced cytopathic effect by MTT assay; format: functional, organism-based; conditions: Human immunodeficiency virus 1, IIIB
[15] = Selectivity index, ratio of CC50 for cytotoxicity against human MT4 cells to EC50 for antiviral activity against HIV1 IIIB infected in human MT4 cells; format: toxicity, cell-based; conditions: read-out: Selectivity Index
[16] = target: Alpha-glucosidase (Mus musculus); assay: Inhibition of mouse alpha-glucosidase assessed as decrease in release of p-nitrophenol using pNPG as substrate preincubated for 10 mins followed by substrate addition and measured after 30 mins by spectroscopic analysis
[17] = target: Alpha-glucosidase (Saccharomyces cerevisiae S288c, UniProt P53341+P38158+P07265); assay: Inhibition of Saccharomyces cerevisiae alpha-glucosidase assessed as decrease in release of p-nitrophenol using pNPG as substrate incubated for 10 mins by spectroscopic analysis; format: protein assay
[18] = Antioxidant activity assessed as trolox equivalent of ABTS radical scavenging activity and measured after 6 mins by UV-vis spectrophotometry; format: functional
[19] = test system: Salmonella typhimurium; assay: Antibacterial activity against Salmonella typhimurium MTCC 98 assessed as bacterial growth inhibition by broth microdilution method; format: functional, Salmonella enterica subsp. enterica serovar Typhimurium; conditions: Salmonella enterica
[20] = test system: Bacillus cereus; assay: Antibacterial activity against Bacillus cereus ATCC-14579 assessed as diameter of inhibition zone incubated for 24 hrs by disc diffusion method; format: functional
[21] = test system: Bacillus subtilis; assay: Antibacterial activity against Bacillus subtilis ATCC 6633 assessed as inhibition of bacterial growth incubated for 24 hrs by broth macrodilution method; format: functional
[22] = test system: Vibrio cholerae; assay: Antibacterial activity against Vibrio cholerae MTCC 3906 assessed as bacterial growth inhibition by broth microdilution method; format: functional
[23] = test system: Staphylococcus aureus; assay: Antibacterial activity against Staphylococcus aureus assessed as inhibition of bacterial growth; format: functional
[24] = test system: Proteus mirabilis; assay: Antibacterial activity against Proteus mirabilis NTCC-289 assessed as diameter of inhibition zone incubated for 24 hrs by disc diffusion method; format: functional
[25] = test system: Bacillus subtilis; assay: Antibacterial activity against Bacillus subtilis ATCC 6633 assessed as diameter of inhibition zone incubated for 24 hrs by disc diffusion assay; format: functional
[26] = test system: Serratia marcescens; assay: Antibacterial activity against Serratia marcescens assessed as diameter of inhibition zone by disc diffusion method; format: functional
[27] = test system: Serratia marcescens; assay: Antibacterial activity against Serratia marcescens IMRU-70 assessed as diameter of inhibition zone incubated for 24 hrs by disc diffusion method; format: functional
[28] = test system: Staphylococcus aureus; assay: Antibacterial activity against Staphylococcus aureus NCTC-7447 assessed as diameter of inhibition zone incubated for 24 hrs by disc diffusion method; format: functional

Polyunsaturated fatty acid 5-lipoxygenase, sequence (P09917 whole entry): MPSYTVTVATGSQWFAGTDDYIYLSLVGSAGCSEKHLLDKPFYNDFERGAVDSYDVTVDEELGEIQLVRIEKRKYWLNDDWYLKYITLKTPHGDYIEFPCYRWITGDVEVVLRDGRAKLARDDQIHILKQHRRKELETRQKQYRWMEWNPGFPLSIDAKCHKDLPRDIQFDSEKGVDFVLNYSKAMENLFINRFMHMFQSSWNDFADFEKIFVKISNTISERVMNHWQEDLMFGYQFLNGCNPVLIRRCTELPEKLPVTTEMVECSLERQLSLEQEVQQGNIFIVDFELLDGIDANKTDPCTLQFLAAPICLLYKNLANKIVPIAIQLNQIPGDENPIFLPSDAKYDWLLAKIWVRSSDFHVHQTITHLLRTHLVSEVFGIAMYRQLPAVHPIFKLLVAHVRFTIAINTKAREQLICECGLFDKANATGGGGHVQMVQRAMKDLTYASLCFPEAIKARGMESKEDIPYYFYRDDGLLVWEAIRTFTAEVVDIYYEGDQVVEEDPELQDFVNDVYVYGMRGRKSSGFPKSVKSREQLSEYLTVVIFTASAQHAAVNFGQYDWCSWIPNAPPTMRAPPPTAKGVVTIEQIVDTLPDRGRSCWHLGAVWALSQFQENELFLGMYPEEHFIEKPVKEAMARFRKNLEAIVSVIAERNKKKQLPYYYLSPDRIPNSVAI

Cc1csc(C2C(C#N)=C(N)Oc3[nH]c(=O)[nH]c(=O)c32)c1 (stereo not given)
zone of inhibition at 20000 µg/mL [1]: 18 mm | zone of inhibition at 20000 µg/mL [2]: 20 mm | zone of inhibition at 20000 µg/mL [3]: 16 mm | zone of inhibition at 20000 µg/mL [4]: 12 mm | zone of inhibition at 20000 µg/mL [5]: 14 mm

N=c1c2c(ncn1-c1ccccc1)Oc1[nH]c(=S)[nH]c(=O)c1C2c1ccc(Cl)cc1 (stereo not given)
IC50 [6]: 3.5 µM | IC50 [7]: 1.93 µM

N#CC1=C(N)Oc2[nH]c(=O)[nH]c(=O)c2C12c1cc(Br)ccc1-n1c2nc2ccccc2c1=O (stereo not given)
IC50 [8]: > 100 µM | IC50 [9]: 10.9 µM | IC50 [10]: 14.2 µM

N#CC1=C(NC[C@]2(O)O[C@H](O)[C@@H](O)[C@@H](O)[C@H]2O)Oc2[nH]c(=S)[nH]c(=O)c2C1c1ccc(Cl)cc1 (stereo not given in full)
IC50 [6]: 3.23 µM | IC50 [7]: 1.66 µM

N=c1c2c(ncn1N)Oc1c(c(=O)oc3ccccc13)C2c1cccc2ccccc12 (stereo not given)
EC50 [11]: 4.84 µg/mL (≈ 11.9 µM) | CC50 [12]: 4.84 µg/mL (≈ 11.9 µM) | selectivity ratio [13]: < 1 | EC50 [14]: 4.84 µg/mL (≈ 11.9 µM) | selectivity ratio [15]: < 1

Cc1nc2c(c(=O)[nH]1)C(c1cccc3ccccc13)c1c(c3ccccc3oc1=O)O2 (stereo not given)
EC50 [11]: 3.63 µg/mL (≈ 8.89 µM) | CC50 [12]: 3.63 µg/mL (≈ 8.89 µM) | selectivity ratio [13]: < 1 | EC50 [14]: 3.63 µg/mL (≈ 8.89 µM) | selectivity ratio [15]: < 1

COc1cc(/C=C/C(=O)C2=C(/C=C/c3ccc(O)c(OC)c3)Oc3[nH]c(=O)[nH]c(=O)c3C2c2c(Cl)cccc2Cl)ccc1O (stereo not given)
IC50 [16]: 46.04 µM | IC50 [17]: 27.6 µM

CCOC(=O)C1=C(N)Oc2[nH]c(=O)[nH]c(=O)c2C1[C@H](O)[C@@H](O)[C@H](O[C@H]1O[C@H](CO)[C@@H](O)[C@H](O)[C@H]1O)[C@H](O)CO (stereo not given in full)
Activity [18]: 5.24 µM

CC1(C)S[C@@H]2[C@H](NC(=O)[C@H](N)c3ccccc3)C(=O)N2[C@H]1C(=O)O [AMPICILLIN]
MIC [19]: 100 µg/mL (≈ 286 µM) | diameter of the inhibition zone (DIZ) [20]: 25 mm | MIC [21]: 0.45 µg/mL (≈ 1.29 µM) | MIC [22]: 100 µg/mL (≈ 286 µM) | MIC [23]: 250 µg/mL (≈ 715 µM) | diameter of the inhibition zone (DIZ) [24]: 25 mm | diameter of the inhibition zone (DIZ) [25]: 32.4 mm | diameter of the inhibition zone (DIZ) [26]: 25 mm | diameter of the inhibition zone (DIZ) [27]: 25 mm | diameter of the inhibition zone (DIZ) [28]: 25 mm
